Results on two molecules are retold here after US9439941B2, “Nano cancer barrier device (NCBD) to immobilize and inhibit the division of metastic cancer stem cells” (The University of Hong Kong, priority 2009, dated 2016).

“Also recorded” adds a separate entry of the source.

In data set [1] the test system is hormone refractory prostate cancer (HRPC). The conditions noted are these: HRPC patients, Docetaxel-based chemotherapy; cited from earlier work.
Data set [2] is described as follows: pH of untreated SAP solution. It is filed as physicochemical. The conditions noted are these: before neutralization in culture medium. Here is the method: (§1) Untreated SAP solution has a very low pH (about 3-4). We neutralized the SAP solution in culture medium before implanting cells in the material. Briefly, for both 1% and 3%, SAP was placed in a dry dish and then 500 μl of culture medium added at the edge of the dish. This was to ensure that the culture medium would not wash the SAP away. The self-assembly occurred as soon as the material made contact with the medium. The medium was changed once at 30 minutes, and then removed. The 400 cells were placed either in the assembled SAP or a control well. Culture medium was then added at the edge of the dish in both SAP cases, and topped up every 2 days to compensate for evaporation. On day 14, the cells were vigorously washed out of the SAP using culture medium. In the 1% case, group 1 (n=4), the cells and SAP were moved to a new well and contents were washed multiple times to separate them from the SAP. In the 3% case, group 2 (n=4), the wells were also vigorously washed to remove the cells from the SAP. However, in both the 1% and 3% SAP concentration, not all of the cells were liberated. The culture continued to grow for 28 days at which point the wells were fixed with 4% paraformaldahyde.

Data set [3] deals with prostate cancer cells (DU145). The data set can be described thus: spheroid (prostasphere) / colony formation of prostate cancer stem cells embedded in SAP, non-adherent plate. The conditions noted are these: for state of CSCs: 14 days after plating; for prostasphere detection: 14 days after plating in non-adherent plate. It is filed as cell-based. Here is the method: The SAP solution was prepared by using RADA16-I dry powder (made in the Ellis-Behnke lab) and mixed in an Eppendorf tube. The solution contained 10 or 30 mg of RADA16-I powder in 1 ml of Milli-Q water (Millipore Corp., Billerica Mass.), mixed, then sonicated for 30 seconds and filtered; this produced 1% and 3% SAP, respectively.
Pre-mix medium for spheroid assay. Mix 50 ml SFM (DMEM-F12-high glucose with 0.25% methylcellulose) and add 1 ml b27 per 50 ml SFM (50× stock). The growth factors are: fibroblast growth factor-basic (FGF) (Sigma cat. no. F0291)—25 μg dissolved in 1.0 ml of 5 mM Tris (pH 7.6) and sterilized with a 0.22 μm pore size filter (make 20 μl aliquots (stored at −20° C.) and add 10 μl per 50 ml of SFM); Epidermal growth factor (EGF) (Sigma cat. no. E4127)—0.1 mg dissolved in 1.0 ml of phosphate-buffered saline containing 0.1% bovine serum albumin (Sigma cat. no. A7511) (make […] (stored at −20° C.) and add 10 μl per 50 ml of SFM); Insulin 10 mg/ml—add 20 μl per 50 ml.
To remove prostate cancer cells (DU145, ATCC, Rockville, Md.) from adherent culture, trypsin was used to liberate and then re-suspend 400 cells per 1 μl plated in each well (10). Before plating the cells, the plate was coated with polyhema (Sigma, St. Louis, Mo.).
as §1

For `CC(=O)O[C@@]12CO[C@@H]1C[C@H](O)[C@@]1(C)C(=O)[C@H](O)C3=C(C)[C@@H](OC(=O)[C@H](O)[C@@H](NC(=O)OC(C)(C)C)c4ccccc4)C[C@@](O)([C@@H](OC(=O)c4ccccc4)[C@H]21)C3(C)C` [Docetaxel], in data set [1], the “improvement of median survival time” value is given as 3 months.

For the molecule n-RADARADARADARADA-c [SAP], in data set [2], the “pH of untreated SAP solution” value is 3-4. Also, in data set [3] (1% SAP), the “state of CSCs” value was “most of the CSCs remained single cells” and the prostasphere detection result is given as “no prostaspheres could be detected”. Besides, the “time remaining cells continued to be quiescent (no division, no colony formation)” value in data set [3] (1% SAP, cells not liberated by day-14 washout) is “up to 28 days”. In addition, the “state of cells at day 10 (FIG. 1G)” value in data set [3] (1% SAP, day 10) is reported as “still single cells”. Moreover, in data set [3] (1% SAP, group 1 (n=4)), the “cell division and colony formation while cells are in the material” value was “remained quiescent; also recorded: delayed division and formation of colonies”. Besides, in data set [3] (1% and 3% SAP), the “colonies when cells completely surrounded by the material” value is listed as “no colonies were seen”. The “colonies when part of the cell was exposed” value in data set [3] (1% and 3% SAP, some cases) is reported as “a colony of reduced size was seen”. Also, the “time proliferation of cells was suspended” value in data set [3] (1% and 3% SAP, experiment then stopped) stood at 28 days. Besides, in data set [3] (3% SAP), the “state of CSCs” value is given as “most of the CSCs remained single cells” and the prostasphere detection result is “no prostaspheres could be detected”. Besides, the “cell division or colony formation of cells that remained in the material” value in data set [3] (3% SAP, at 28 days) was “no cell division or colony formation”. For the same molecule, the “state of cells at day 10 (FIG. 1H)” value in data set [3] (3% SAP, day 10) is listed as “still single cells”. Also, in data set [3] (3% SAP, day 28), the “size of single cell remaining in SAP (FIG. 1O)” value is recorded as “still the same size as day 1”. Also, the “time CSCs remained quiescent” value in data set [3] (CSCs from prostate cancer cell lines embedded in SAP) was “more than 28 days”. The “self-renewal of prostate CSC” value in data set [3] (SAP, viability and CSC property preserved) is recorded as “completely inhibit”. Moreover, the “time until colonization visible post-washout” value in data set [3] (cells washed out of 1% SAP) is 10 days. In data set [3] (cells washed out of 1% SAP and replated), the “viability and self-renewal of embedded cells after washout” value was “viable and capable of self-renewal”. Moreover, in data set [3] (cells washed out of 1% SAP at day 14, replated in non-adherent plate), the “time until prostaspheres visible after washout” value was 8 days. Moreover, the “time until prostaspheres evident post-washout” value in data set [3] (cells washed out of 3% SAP at day 14) came out at 8 days. The “division of cancer cells in vitro and subsequent colony formation” value in data set [3] (each group, cells placed in the SAP) is “stopped”.
